Tests used:
[1] = test system: female mice of the NMRI strain; assay: Squirrel-cage test for determining effect of drugs on motility (Test 4); format: in vivo, mouse (female mice of the NMRI strain); settings: peroral, 20 mice, revolutions over 5 hours, compared with peroral chlordiazepoxide
Experimental: 4. Squirrel-cage test for determining effect of drugs on motility: The test substance is administered perorally to female mice of the NMRI strain that had previously not been exercised in a squirrel cage. Twenty mice are placed into the revolving cylinder of the squirrel cage and they are allowed to run freely therein. The number of revolutions through which the cylinder in the squirrel cage spins every 15 minutes is noted during the course of an extended period of 5 hours, when the test is discontinued. The average of the number of revolutions per minute is calculated and represented on a graph. These values are then compared with […] and the results are reported in milligrams per kilogram of body weight.

[2] = test system: female mice of the NMRI strain; assay: Test of sedative effectiveness (Test 3); format: in vivo, mouse (female mice of the NMRI strain); settings: Mus musculus, ip, 0.5 h; intraperitoneal, on awakening from 100 mg/kg hexobarbital i.p.; dose required to induce sleep for 30 minutes; read-out: Effective sedative dose ED50 (Test 3)
Experimental: 3. Test of sedative effectiveness: In this test is measured the period of narcosis that is induced by the test substance following a period of narcosis induced by hexobarbital. A dose of 100 milligrams of hexobarbital per kilogram of body weight is administered intraperitoneally to female mice of the NMRI strain. As soon as the mouse revives or awakens from the narcosis induced by the dose of hexobarbital, a measured dose of the test substance is administered intraperitoneally. The period between the administration of the test substance and the second revival of the mouse is then noted. From the length of this second period is calculated the dose of the test substance that was required to induce sleep for a period of 30 minutes and this dose is referred to as the effective sedative dose (ED50).

[3] = Acute toxicity, single oral administration (Test 1); settings: mouse, in vivo, fasting white mice, NMRI strain, Litchfield and Wilcoxon
Experimental: 1. Acute toxicity: The acute toxicity is determined by a single oral administration to fasting white mice of the NMRI strain. The […] lethal dose (LD50) is computed in accordance with the method described by J.T. Litchfield and F. Wilcoxon in Journal of Pharmacology and Experimental Therapeutics, vol. 96, page 99 (1949).

mouse = assay: Test of prolongation of narcosis induced by hexobarbital (Test 2); format: in vivo; settings: peroral, 30 minutes before 65 mg/kg hexobarbital i.v., dose required to double the sleeping time, read-out: Narcotic prolongation effect (Test 2)
Experimental: 2. Test of prolongation of narcosis induced by hexobarbital: In accordance with this test, the test substance is administered perorally to a mouse. After an interval of 30 minutes, a dose of 65 milligrams of hexobarbital per kilogram of body weight is administered intravenously. The result is reported as the dose of the test compound that was required to double the period of sleeping time that was induced by the hexobarbital.

| SMILES | Squirrel cage motility test versus 21.5 mg/kg chlordiazepoxide (Test 4) [1] | ED50 [2] | LD50 [3] | ED (2-fold sleeping time) (mouse) |
| --- | --- | --- | --- | --- |
| Cl.Cl.N#Cc1ccc(OCCN2CCN(CCCC(=O)c3ccc(F)cc3)CC2)cc1 [Substance 1, 1-[3-(4-Fluorobenzoyl)propyl]-4-[2-(4-cyanophenoxy)ethyl]-piperazine dihydrochloride] | 0.7 mg/kg | 21.5 mg/kg | 215 mg/kg | 10 mg/kg |
| Cl.Cl.O=C(CCCN1CCN(CCSc2ccc(Cl)cc2)CC1)c1ccc(F)cc1 [Substance 2, 1-[3-(4-Fluorobenzoyl)propyl]-4-[2-(4-chlorophenylthio)-ethyl]piperazine dihydrochloride] | > 10 mg/kg | 30 mg/kg | > 1470 mg/kg | 20 mg/kg |
| CCC(=O)c1ccc(OCCN2CCN(CCCC(=O)c3ccc(F)cc3)CC2)c(Cl)c1.Cl.Cl [Substance 3, 1-[3-(4-Fluorobenzoyl)propyl]-4-[2-(4-propionyl-2-chlorophenoxy)ethyl]piperazine dihydrochloride] | 1.5 mg/kg | 14 mg/kg | 860 mg/kg | 20 mg/kg |
| Cc1ccc(OCCN2CCN(CCCC(=O)c3ccc(F)cc3)CC2)c([N+](=O)[O-])c1.Cl.Cl [Substance 4, 1-[3-(4-Fluorobenzoyl)propyl]-4-[2-(4-methyl-2-nitrophenoxy)ethyl]piperazine dihydrochloride] | – | 46 mg/kg | 1720 mg/kg | 20 mg/kg |
| COc1cc(C)ccc1OCCN1CCN(CCCC(=O)c2ccc(F)cc2)CC1.Cl.Cl [Substance 5, 1-[3-(4-Fluorobenzoyl)propyl]-4-[2-(4-methyl-2-methoxyphenoxy)ethyl]piperazine dihydrochloride] | 3.2 mg/kg | 7 mg/kg | 458 mg/kg | 46 mg/kg |
| Cc1ccc([N+](=O)[O-])cc1OCCN1CCN(CCCC(=O)c2ccc(F)cc2)CC1.Cl.Cl [Substance 6, 1-[3-(4-Fluorobenzoyl)propyl]-4-[2-(5-nitro-2-methylphenoxy)ethyl]piperazine dihydrochloride] | – | 23 mg/kg | > 1470 mg/kg | 32 mg/kg |
| CS(=O)(=O)c1ccc(OCCN2CCN(CCCC(=O)c3ccc(F)cc3)CC2)cc1.Cl.Cl [Substance 7, 1-[3-(4-Fluorobenzoyl)propyl]-4-[2-(4-methylsulfonylphenoxy)ethyl]piperazine dihydrochloride] | 6.8 mg/kg | 30 mg/kg | 825 mg/kg | 46 mg/kg |
| Cl.Cl.O=C(CCCN1CCN(CCSc2ccc([N+](=O)[O-])cc2)CC1)c1ccc(F)cc1 [Substance 8, 1-[3-(4-Fluorobenzoyl)propyl]-4-[2-(4-nitrophenylthio)-ethyl]piperazine dihydrochloride] | 6.8 mg/kg | 30 mg/kg | 499 mg/kg | 6 mg/kg |

Source: patent US3966735A, “1-3-(4-Fluorobenzoyl)propyl-4-substituted phenoxy ethyl piperazine” (Kali-Chemie Aktiengesellschaft, priority 1973, dated 1976)
